According to patent publication US20220002279A1, “NOVEL IMIDAZOLE DERIVATIVE” (priority 2018, published 2022):
pIC50: −log10 of the molar value. Values after ≈ are worked out from the molar mass of the structure shown.

Columns and labels:
[1] = target: T1, Pseudomonas aeruginosa LpxC enzyme (Pseudomonas aeruginosa, UniProt P47205); assay: Inhibitory activity on Pseudomonas aeruginosa LpxC enzyme (fluorescamine method); assay type: biochemical; settings: fluorescamine detection; 3.6 nmol/L enzyme, 20 μmol/L substrate, pH 8.0, 60 min
T1 construct: made in house; host or cells: Escherichia coli
T1 sequence (P47205 1-303): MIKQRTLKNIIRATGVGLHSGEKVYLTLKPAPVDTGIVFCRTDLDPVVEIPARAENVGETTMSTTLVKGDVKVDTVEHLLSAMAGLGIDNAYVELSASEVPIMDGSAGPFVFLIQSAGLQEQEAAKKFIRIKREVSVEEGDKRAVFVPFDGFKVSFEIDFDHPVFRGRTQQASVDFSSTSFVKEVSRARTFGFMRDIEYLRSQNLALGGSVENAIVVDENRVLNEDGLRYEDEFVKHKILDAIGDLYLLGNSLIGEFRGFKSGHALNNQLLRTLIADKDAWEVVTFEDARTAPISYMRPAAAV
Source text: Test Example 1 Evaluation of the Inhibitory Activity on Pseudomonas aeruginosa LpxC Enzyme (Fluoresamine Method)
To assay the activity of Pseudomonas aeruginosa LpxC enzyme, LpxC was reacted with its substrate, UDP-3-O-(R-3-hydroxydecanoyl)-N-acetylglucosamine, and the amount of the reaction product was quantified by the amino groups present in the product.
Specifically, to 3.6 nmol/L Pseudomonas aeruginosa LpxC enzyme (as acquired by preparing chromosomal DNA from Pseudomonas aeruginosa, obtaining the Pseudomonas aeruginosa LpxC genes by PCR (polymerase chain reaction) using LpxC specific primer, and incorporating the genes into a vector, followed by expression using Escherichia coli), 20 μmol/L UDP-3-O-(R-3-hydroxydecanoyl)-N-acetylglucosamine (Carbosynth) was added, and the mixture was incubated at room temperature for 60 minutes. This reaction was performed in a 40 mmol/L-HEPES buffer solution (pH 8.0) containing 0.02% Brij 35 and 25 nmol/L-zinc chloride. The reaction was terminated by the addition of 1.0 mg/mL-fluorescamine dissolved in a solvent obtained by mixing an equal amount of acetonitrile and dimethylformamide with the reaction mixture, and then, a 0.2 mol/L-sodium phosphate buffer solution (pH 8.0) was added thereto, and the amount of the reaction product was detected at an excitation wavelength/fluorescence wavelength=390 nm/495 nm. An inhibition curve was obtained by performing the aforementioned reaction in the presence of various concentrations of test compounds. From this inhibition curve, the concentration of test compound at which the amount of the reaction product was suppressed by 50% (IC50 value) was determined, which was used as an index for the inhibitory activity on Pseudomonas aeruginosa LpxC enzyme.

[2] = target: T2, Escherichia coli LpxC enzyme (Escherichia coli, UniProt P0A725); assay: Inhibitory activity on Escherichia coli LpxC enzyme (LCMS method); assay type: biochemical; settings: LC-MS/MS detection; 3.1 nmol/L enzyme, 20 μmol/L substrate, pH 6.5, 120 min; read-out: IC50 (inhibitory activity on Escherichia coli LpxC enzyme, LCMS method)
T2 construct: made in house; host or cells: Escherichia coli
T2 sequence (P0A725 1-305): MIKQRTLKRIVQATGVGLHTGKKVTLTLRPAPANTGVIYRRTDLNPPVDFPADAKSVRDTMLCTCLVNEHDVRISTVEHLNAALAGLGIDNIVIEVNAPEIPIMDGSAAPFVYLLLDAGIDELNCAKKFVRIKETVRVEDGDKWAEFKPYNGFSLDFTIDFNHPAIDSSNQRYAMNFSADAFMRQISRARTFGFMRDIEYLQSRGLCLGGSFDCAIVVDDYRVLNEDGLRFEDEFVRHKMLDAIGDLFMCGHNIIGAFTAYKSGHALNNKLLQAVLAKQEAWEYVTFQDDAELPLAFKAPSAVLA
Source text: Test Example 3 Evaluation of the Inhibitory Activity on Escherichia coli LpxC Enzyme (LCMS Method)
To assay the activity of Escherichia coli LpxC enzyme, LpxC was reacted with its substrate, UDP-3-O-(R-3-hydroxymyristoyl)-N-acetylglucosamine, and the amount of the reaction product was quantified by liquid chromatography tandem mass spectrometry.
Specifically, to 3.1 nmol/L Escherichia coli LpxC enzyme (as acquired by preparing chromosomal DNA from Escherichia coli, obtaining the Escherichia coli LpxC genes by PCR (polymerase chain reaction) using LpxC specific primer, and incorporating the genes into a vector, followed by expression using Escherichia coli), 20 μmol/L UDP-3-O-(R-3-hydroxymyristoyl)-N-acetylglucosamine (Alberta) was added, and the mixture was incubated at room temperature for 120 minutes. This reaction was performed in a 40 mmol/L-2-morpholinoethanesulfonic acid buffer solution (pH 6.5) containing 0.02% Brij 35, 25 nmol/L-zinc chloride, and 80 μmol/L-dithiothreitol. The reaction was terminated by the addition of acetonitrile containing 25 μmol/L-UDP-N-acetylglucosamine as an internal standard to the reaction mixture. Centrifugation was performed and the amount of the substrate and the reaction product in the supernatant was detected by liquid chromatography tandem mass spectrometry. An inhibition curve was obtained by performing the aforementioned reaction in the presence of various concentrations of test compounds. From this inhibition curve, the concentration of test compound at which the amount of the reaction product was suppressed by 50% (IC50 value) was determined, which was used as an index for the inhibitory activity on Escherichia coli LpxC enzyme.

[3] = system: Escherichia coli strain ATCC25922; assay: Antimicrobial activity, MIC by broth microdilution; assay type: cell-based; settings: ATCC25922, 18 h, cation-adjusted Mueller-Hinton broth, about 5×10^5 CFU/mL, 35° C., about 18 hours, read-out: MIC Escherichia coli ATCC25922
In short: (§1)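 MIC read by eye as the lowest drug level lacking visible growth after roughly 18 h at 35° C. Cells from heart infusion agar, set to McFarland 0.5 and diluted, were inoculated at about 5×10^5 CFU/mL into cation-adjusted Mueller-Hinton broth with compound, per adapted CLSI microdilution.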

[4] = system: Klebsiella pneumoniae strain ATCC13883; assay: Antimicrobial activity, MIC by broth microdilution; assay type: cell-based; settings: ATCC13883, cation-adjusted Mueller-Hinton broth, about 5×10^5 CFU/mL, 35° C., about 18 hours, read-out: MIC Klebsiella pneumoniae ATCC13883
In short: as §1

[5] = system: Pseudomonas aeruginosa strain ATCC27853; assay: Antimicrobial activity, MIC by broth microdilution; assay type: cell-based; settings: ATCC27853, 18 h, cation-adjusted Mueller-Hinton broth, about 5×10^5 CFU/mL, 35° C., about 18 hours, read-out: MIC Pseudomonas aeruginosa ATCC27853
In short: as §1

C[C@H](O)c1nccn1Cc1cc(-c2ccc(C#CC34CC(N)(C3)C4)cc2)on1 [Compound 17, (1S)-1-{1-[(5-(4-[(3-aminobicyclo[1.1.1]pentan-1-yl)ethynyl]phenyl}-1,2-oxazol-3-yl)methyl]-1H-imidazol-2-yl}ethan-1-ol] was tested, and the pIC50 [1] was 7.86, the pIC50 [2] was 7.31 and the MIC [3] was 0.5 µg/mL (≈ 1.34 µM). It also gave an MIC [4] of 0.5 µg/mL (≈ 1.34 µM) and an MIC [5] of 16 µg/mL (≈ 42.7 µM).
